Experimental data published in patent US11013232B2, “Hydrotesting and mothballing composition and method of using combination products for multifunctional water treatment” (priority 2014, dated 2021).

Tests used:
[1] = system: General Heterotrophic Bacteria (GHB); test: Most Probable Number (MPN) bacterial kill efficacy, GHB; assay type: cell-based, mixed consortia isolated from seawater; settings: first MPN set; for GHB per mL: formulation with ammonium bisulfide, 500 ppm active biocide; for log reduction of planktonic GHB: exposure time of 24 hours
Procedure: (§1) The Most Probably Number technique using a bacterial enumeration technique was performed, as described in NACE International Standard TMP 194-2004. Complex mixed consortia were isolated from seawater and subjected to the chemicals being tested. All chemicals were applied at the same active concentration. Surviving cells were assayed after exposure periods of 1, 7 and 28 days to the numbers compared with a control which received no treatments. The bottle tests were carried out using two mixed consortia—Sulfate Reducing Bacteria (SRB) and General Heterotrophic Bacteria (GHB) that also measured Acid Producing Bacteria (APB) enriched from seawater. Aliquots of the water (1 mL) were inoculated into SRB culture medium and GHB culture medium (Phenol Red Dextrose broth) respectively and sub-cultured twice. The cultures used in the tests were incubated at 30° C. for five days; these were then used to supplement seawater to achieve 10^3 to 10^4 SRB cells per mL. For the trial one control bottle and four test bottles were set up. The chemicals were added to the appropriate test bottles to give the final concentrations of each product as supplied. All chemicals were added so that 500 ppm of active biocide was present in each test. The control bottle contained seawater only with no added chemical.
(§2) At each time point, (one, seven and twenty-eight days), a sample was removed from each test bottle and the control bottle and used to inoculate the MPN vials. Bacterial counts were performed using the triplicate Most Probable Number method (triplicate MPNs). The inoculated MPN vials were incubated at 30° C. for 7 days for GHB and APB and 28 days for SRB. Results have been reported as cells per mL. […]

[2] = system: Acid Producing Bacteria (APB); test: Most Probable Number (MPN) bacterial kill efficacy, APB; assay type: cell-based, mixed consortia isolated from seawater; settings: first MPN set; for APB per mL: formulation with ammonium bisulfide, 500 ppm active biocide; for log reduction of APB numbers: exposure time of 24 hours
Procedure: as §1, §2

[3] = system: Sulfate Reducing Bacteria (SRB); test: Most Probable Number (MPN) bacterial kill efficacy, SRB; assay type: cell-based, mixed consortia isolated from seawater; settings: first MPN set; for SRB per mL: formulation with ammonium bisulfide, 500 ppm active biocide; for log reduction of planktonic SRB: exposure time of 24 hours
Procedure: as §1, §2

[4] = Oxygen scavenging efficacy (real-time orbisphere oxygen sensor); settings: 500 ppm
Procedure: Oxygen scavenging efficacy was evaluated using a real-time orbisphere oxygen sensor with data logging. The test equipment consisted of a stirrer plate and stirrer bar, a 1 liter test cell, circulation pump, flow chamber, oxygen sensor and data logger. Test work was performed using potable water taken from the mains water supply in The Woodlands, Tex. and then using filtered seawater taken from Galveston, Tex. Testing was performed at 4° C. and 25° C. by wrapping the test cell with a monoethylene glycol circulator chiller jacket. A carbon steel stirrer bar was added to the test cell to replicate turbulence that would be created upon pumping the hydrotest fluid using the metallurgy of a typical pipeline. A non-pulsing circulation pump was set to circulate the test fluid past the oxygen sensor at a rate of 10 mL·min^−1. The oxygen sensor was calibrated prior to every new test run. Each test was run for a duration of 60 minutes with a 10 minute stabilization period prior to the introduction of test chemical. Chemical was injected into the test cell by means of a needle and syringe through a rubber stopper to minimize any oxygen ingress during this stage of the test. Throughout the test, oxygen levels were measured once every minute and the data continuously logged.
All tests of the new formulations (detailed in Table 1) were benchmarked against has 50% ADMAC (specifically […]), 30% ammonium bisulfite and 20% water, herein referenced as Formulation 3 and detailed in Table 1. Furthermore ammonium bisulfite was used as a benchmark and the activity matched up to 30% which is the concentration used in all the formulations. Therefore all testing had the same concentration of oxygen scavenging component with the only variable being the other components of the formulation.
It should be noted that all testing was performed so that the concentration of oxygen scavenger was exactly the same in all tests so the only variables were the counter components in the formulations, this isolating the effects that combining components has upon the oxygen scavenging efficacy of the invented products. Therefore all formulations were added at 500 ppm. […] Furthermore, adding a dye into the formulation as well as the DDAC and DDABC, as is the case with Formulation 1, has no further negative effects on oxygen scavenging efficacy. It should be noted that scavenging in relatively warm seawater is not a very challenging environment to perform this testing in.

## CN1CSC(=S)N(C)C1 [Dazomat, Tetrahydro-3,5-dimethyl-2H-1,3,5-thiadiazine-2-thione]
[1]; 24 h exposure
  GHB per mL: 4.5E+02 cells per mL
[1]; 7 d exposure
  GHB per mL: 4.5E+03 cells per mL
[1]; 28 d exposure
  GHB per mL: 2.5E+05 cells per mL
[1]
  log reduction of planktonic GHB: 2.5 log
[2]; 24 h exposure
  APB per mL: 2.5E+02 cells per mL
[2]; 7 d exposure
  APB per mL: 2.5E+02 cells per mL
[2]; 28 d exposure
  APB per mL: 4.5E+02 cells per mL
[2]
  log reduction of APB numbers: 0.5 log
[3]; 24 h exposure
  SRB per mL: 2.5E+04 cells per mL
[3]; 7 d exposure
  SRB per mL: 2.0E+02 cells per mL
[3]; 28 d exposure
  SRB per mL: 1.0E+00 cells per mL
[3]
  log reduction of planktonic SRB: did not result in a significant reduction

## CC1(C)C(=O)N(CO)C(=O)N1CO [DMDM hydantoin, 1,3-Bis(hydroxymethyl)-5,5-dimethylimidazoline-2,4-dione]
[1]; 24 h exposure
  GHB per mL: 9.5E+03 cells per mL
[1]; 7 d exposure
  GHB per mL: 9.5E+05 cells per mL
[1]; 28 d exposure
  GHB per mL: 2.5E+05 cells per mL
[1]
  log reduction of planktonic GHB: 1 log
[2]; 24 h exposure
  APB per mL: 4.5E+02 cells per mL
[2]; 7 d exposure
  APB per mL: 2.5E+02 cells per mL
[2]; 28 d exposure
  APB per mL: 9.5E+04 cells per mL
[2]
  log reduction of APB numbers: no effect
[3]; 24 h exposure
  SRB per mL: 9.5E+04 cells per mL
[3]; 7 d exposure
  SRB per mL: 9.5E+02 cells per mL
[3]; 28 d exposure
  SRB per mL: 4.5E+06 cells per mL
[3]
  log reduction of planktonic SRB: no effect

## N.O=S(O)O [ABS 30%, ammonium bisulfite]
[4]; fresh water, 25° C., time 0 minutes (stabilization before chemical injection)
  Oxygen level (ppm O2): 8.314 ppm O2
[4]; fresh water, 25° C., time 2 minutes (stabilization before chemical injection)
  Oxygen level (ppm O2): 8.346 ppm O2
[4]; fresh water, 25° C., time 4 minutes (stabilization before chemical injection)
  Oxygen level (ppm O2): 8.310 ppm O2
[4]; fresh water, 25° C., time 6 minutes (stabilization before chemical injection)
  Oxygen level (ppm O2): 8.265 ppm O2
[4]; fresh water, 25° C., time 8 minutes (stabilization before chemical injection)
  Oxygen level (ppm O2): 8.345 ppm O2
[4]; fresh water, 25° C., time 10 minutes (end of 10 minute stabilization)
  Oxygen level (ppm O2): 8.302 ppm O2
[4]; fresh water, 25° C., time 12 minutes
  Oxygen level (ppm O2): 7.612 ppm O2
[4]; fresh water, 25° C., time 14 minutes
  Oxygen level (ppm O2): 6.674 ppm O2
[4]; fresh water, 25° C., time 16 minutes
  Oxygen level (ppm O2): 5.585 ppm O2
[4]; fresh water, 25° C., time 18 minutes
  Oxygen level (ppm O2): 4.732 ppm O2
[4]; fresh water, 25° C., time 20 minutes
  Oxygen level (ppm O2): 4.115 ppm O2
[4]; fresh water, 25° C., time 22 minutes
  Oxygen level (ppm O2): 3.765 ppm O2
[4]; fresh water, 25° C., time 24 minutes
  Oxygen level (ppm O2): 3.195 ppm O2
[4]; fresh water, 25° C., time 26 minutes
  Oxygen level (ppm O2): 3.027 ppm O2
[4]; fresh water, 25° C., time 28 minutes
  Oxygen level (ppm O2): 2.546 ppm O2
[4]; fresh water, 25° C., time 30 minutes
  Oxygen level (ppm O2): 1.863 ppm O2
[4]; fresh water, 25° C., time 32 minutes
  Oxygen level (ppm O2): 1.516 ppm O2
[4]; fresh water, 25° C., time 34 minutes
  Oxygen level (ppm O2): 1.173 ppm O2
[4]; fresh water, 25° C., time 36 minutes
  Oxygen level (ppm O2): 0.857 ppm O2
[4]; fresh water, 25° C., time 38 minutes
  Oxygen level (ppm O2): 0.654 ppm O2
[4]; fresh water, 25° C., time 40 minutes
  Oxygen level (ppm O2): 0.436 ppm O2
[4]; fresh water, 25° C., time 42 minutes
  Oxygen level (ppm O2): 0.349 ppm O2
[4]; fresh water, 25° C., time 44 minutes
  Oxygen level (ppm O2): 0.215 ppm O2
[4]; fresh water, 25° C., time 46 minutes
  Oxygen level (ppm O2): 0.134 ppm O2
[4]; fresh water, 25° C., time 48 minutes
  Oxygen level (ppm O2): 0.119 ppm O2
[4]; fresh water, 25° C., time 50 minutes
  Oxygen level (ppm O2): 0.096 ppm O2
[4]; fresh water, 25° C., time 52 minutes
  Oxygen level (ppm O2): 0.087 ppm O2
[4]; fresh water, 25° C., time 54 minutes
  Oxygen level (ppm O2): 0.063 ppm O2
[4]; fresh water, 25° C., time 56 minutes
  Oxygen level (ppm O2): 0.055 ppm O2
[4]; fresh water, 25° C., time 58 minutes
  Oxygen level (ppm O2): 0.050 ppm O2
[4]; fresh water, 25° C., time 60 minutes
  Oxygen level (ppm O2): 0.480 ppm O2
[4]; seawater, 4° C., time 0 minutes (stabilization before chemical injection)
  Oxygen level (ppm O2): 7.554 ppm O2
[4]; seawater, 4° C., time 2 minutes (stabilization before chemical injection)
  Oxygen level (ppm O2): 7.452 ppm O2
[4]; seawater, 4° C., time 4 minutes (stabilization before chemical injection)
  Oxygen level (ppm O2): 7.357 ppm O2
[4]; seawater, 4° C., time 6 minutes (stabilization before chemical injection)
  Oxygen level (ppm O2): 7.268 ppm O2
[4]; seawater, 4° C., time 8 minutes (stabilization before chemical injection)
  Oxygen level (ppm O2): 7.121 ppm O2
[4]; seawater, 4° C., time 10 minutes (end of 10 minute stabilization)
  Oxygen level (ppm O2): 6.997 ppm O2
[4]; seawater, 4° C., time 12 minutes
  Oxygen level (ppm O2): 2.125 ppm O2
[4]; seawater, 4° C., time 14 minutes
  Oxygen level (ppm O2): 0.454 ppm O2
[4]; seawater, 4° C., time 16 minutes
  Oxygen level (ppm O2): 0.269 ppm O2
[4]; seawater, 4° C., time 18 minutes
  Oxygen level (ppm O2): 0.064 ppm O2
[4]; seawater, 4° C., time 20 minutes
  Oxygen level (ppm O2): 0.047 ppm O2
[4]; seawater, 4° C., time 22 minutes
  Oxygen level (ppm O2): 0.029 ppm O2
[4]; seawater, 4° C., time 24 minutes
  Oxygen level (ppm O2): 0.009 ppm O2
[4]; seawater, 4° C., time 26 minutes
  Oxygen level (ppm O2): 0.003 ppm O2
[4]; seawater, 4° C., time 28 minutes
  Oxygen level (ppm O2): 0.002 ppm O2
[4]; seawater, 25° C., time 0 minutes (stabilization before chemical injection)
  Oxygen level (ppm O2): 7.112 ppm O2
[4]; seawater, 25° C., time 2 minutes (stabilization before chemical injection)
  Oxygen level (ppm O2): 7.081 ppm O2
[4]; seawater, 25° C., time 4 minutes (stabilization before chemical injection)
  Oxygen level (ppm O2): 7.029 ppm O2
[4]; seawater, 25° C., time 6 minutes (stabilization before chemical injection)
  Oxygen level (ppm O2): 7.084 ppm O2
[4]; seawater, 25° C., time 8 minutes (stabilization before chemical injection)
  Oxygen level (ppm O2): 7.066 ppm O2
[4]; seawater, 25° C., time 10 minutes (end of 10 minute stabilization)
  Oxygen level (ppm O2): 7.061 ppm O2
[4]; seawater, 25° C., time 12 minutes
  Oxygen level (ppm O2): 0.052 ppm O2
[4]; seawater, 25° C., time 14 minutes
  Oxygen level (ppm O2): 0.013 ppm O2
[4]; seawater, 25° C., time 16 minutes
  Oxygen level (ppm O2): 0.010 ppm O2
[4]; seawater, 25° C., time 18 minutes
  Oxygen level (ppm O2): 0.009 ppm O2
[4]; seawater, 25° C., time 20 minutes
  Oxygen level (ppm O2): 0.008 ppm O2
[4]; seawater, 25° C., time 22 minutes
  Oxygen level (ppm O2): 0.007 ppm O2
[4]; seawater, 25° C., time 24 minutes
  Oxygen level (ppm O2): 0.006 ppm O2
[4]; seawater, 25° C., time 26 minutes
  Oxygen level (ppm O2): 0.005 ppm O2
[4]; seawater, 25° C., time 28 minutes
  Oxygen level (ppm O2): 0.004 ppm O2

## CC1CN(CN2COC(C)C2)CO1 (stereo not drawn) [MBMO, N, N′-Methylene bis(5-methyloxazolidine)]
[1]; 24 h exposure
  GHB per mL: 9.5E+03 cells per mL
[1]; 7 d exposure
  GHB per mL: 4.5E+03 cells per mL
[1]; 28 d exposure
  GHB per mL: 2.5E+02 cells per mL
[1]; after 28 days
  further log reduction of GHB numbers: 2 log
[1]
  log reduction of planktonic GHB: 1 log
[2]; 24 h exposure
  APB per mL: 7.5E+02 cells per mL
[2]; 7 d exposure
  APB per mL: 7.5E+02 cells per mL
[2]; 28 d exposure
  APB per mL: 4.5E+01 cells per mL
[3]; 24 h exposure
  SRB per mL: 9.5E+03 cells per mL
[3]; 7 d exposure
  SRB per mL: 4.0E+01 cells per mL
[3]; 28 d exposure
  SRB per mL: 1.0E+00 cells per mL
